Measured values from patent US8642774B2, “Compounds” (Boehringer Ingelheim International GmbH, priority 2011, dated 2014).

Biological target: T1, human recombinant mGluR5 (Homo sapiens, UniProt P41594)
T1 construct: expressed in transfected cells; host or cells: HEK 293 cell line, cultured with tetracycline, hygromycin and geneticin; tetracycline is withdrawn 3-7 days before the assay
Test: positive modulation of mGluR5, calcium based FLIPR assay
Assay type: cell-based
Details: EC50 of the modulation; HEK 293 cell line expressing human recombinant mGluR5; peak height of Ca fluorescence signal after glutamate at approx. 5% basal stimulation; read-out: EC50
Protocol: The positive modulation of mGluR5 is measured in a HEK 293 cell line expressing human recombinant mGluR5 and is detected with calcium based FLIPR assay. The cells are cultured with DMEM supplemented with 10% FCS, 2 μg/mL tetracycline, 100 μg/mL hygromycin and 500 μg/mL gneticin. The cell culture media is exchanged for tetracycline-free cell culture media 3-7 days before the assay. One day before the assay the cell culture medium is exchanged to DMEM without glutamine and phenol red and supplemented with 10% FCS, 100 μg/mL hygromycin and 500 μg/mL geneticin. On the assay day, the medium of the subconfluent cultures is removed and the cells are detached by addition of 2.5 ml EDTA (0.02%) per 175 cm2 culture flask for 1 minute. The cells are resuspend in Ringer solution (140 mM NaCl, 5 mM KCl, 2.5 mM CaCl2, 1.5 mM MgCl2, 5 mM Glucose, 10 mM Hepes; adjusted to pH 7.4 with NaOH), pooled and Ringer solution added to adjust the volume to 50 mL. The cell suspension is centrifuged for 5 min at 1500 U/min (425 g). The supernatant is removed and the cells washed a second time with 50 ml fresh Ringer solution and centrifuged again as before. The supernatant is again removed and the pellet resuspended in Ringer solution to 1,000,000 cells/ml (1×10^6 cells/mL). The cells are plated onto BD BioCoat Poly-D-Lysine 384 well plates (20.000 cells/well; 20 μl/well). The lid covered plates are then incubated until use at 37° C./10% CO2. For dye loading, 20 μl of Calcium-4 assay kit solution (prepared according to the manufacturer's description in Ringer solution) are added to the cells and the plates are incubated for 80 min 37° C. and then 10 min at room temperature. • Controls, Compound dilution and assay execution: • Each assay plate contained wells with “high” and “low” controls:
Low controls 1% DMSO/ringer solution+basal glutamate activation (defined as 100% CTL).
High controls 10 μM CDPPB+basal glutamate activation (defined as 200% CTL).
Test compounds are dissolved and diluted in DMSO to 100-fold the desired concentrations. In a second step, the compounds are diluted in Ringer solution such that the compounds are 4-fold more concentrated than the desired final assay concentration. The final DMSO concentration was 1%.
20 μl of each compound solution are then transferred to the assay plate and the Ca2+ kinetic is measured to determine any intrinsic compound activity. After 5 min incubation in the FLIPR device, the second stimulation with 20 μl of glutamate in Ringer solution (glutamate concentration adjusted to approximately 5% basal stimulation of the maximal possible glutamate effect) is added and the kinetic Ca2+ response of the wells was measured for the modulation effect.
The peak height of the Ca release related fluorescence signal (9-66) is used for the EC50. The EC50 of the modulation is calculated over a nonlinear regression with GraphPad Prism (Table 1).

T1 sequence (P41594 21-1212): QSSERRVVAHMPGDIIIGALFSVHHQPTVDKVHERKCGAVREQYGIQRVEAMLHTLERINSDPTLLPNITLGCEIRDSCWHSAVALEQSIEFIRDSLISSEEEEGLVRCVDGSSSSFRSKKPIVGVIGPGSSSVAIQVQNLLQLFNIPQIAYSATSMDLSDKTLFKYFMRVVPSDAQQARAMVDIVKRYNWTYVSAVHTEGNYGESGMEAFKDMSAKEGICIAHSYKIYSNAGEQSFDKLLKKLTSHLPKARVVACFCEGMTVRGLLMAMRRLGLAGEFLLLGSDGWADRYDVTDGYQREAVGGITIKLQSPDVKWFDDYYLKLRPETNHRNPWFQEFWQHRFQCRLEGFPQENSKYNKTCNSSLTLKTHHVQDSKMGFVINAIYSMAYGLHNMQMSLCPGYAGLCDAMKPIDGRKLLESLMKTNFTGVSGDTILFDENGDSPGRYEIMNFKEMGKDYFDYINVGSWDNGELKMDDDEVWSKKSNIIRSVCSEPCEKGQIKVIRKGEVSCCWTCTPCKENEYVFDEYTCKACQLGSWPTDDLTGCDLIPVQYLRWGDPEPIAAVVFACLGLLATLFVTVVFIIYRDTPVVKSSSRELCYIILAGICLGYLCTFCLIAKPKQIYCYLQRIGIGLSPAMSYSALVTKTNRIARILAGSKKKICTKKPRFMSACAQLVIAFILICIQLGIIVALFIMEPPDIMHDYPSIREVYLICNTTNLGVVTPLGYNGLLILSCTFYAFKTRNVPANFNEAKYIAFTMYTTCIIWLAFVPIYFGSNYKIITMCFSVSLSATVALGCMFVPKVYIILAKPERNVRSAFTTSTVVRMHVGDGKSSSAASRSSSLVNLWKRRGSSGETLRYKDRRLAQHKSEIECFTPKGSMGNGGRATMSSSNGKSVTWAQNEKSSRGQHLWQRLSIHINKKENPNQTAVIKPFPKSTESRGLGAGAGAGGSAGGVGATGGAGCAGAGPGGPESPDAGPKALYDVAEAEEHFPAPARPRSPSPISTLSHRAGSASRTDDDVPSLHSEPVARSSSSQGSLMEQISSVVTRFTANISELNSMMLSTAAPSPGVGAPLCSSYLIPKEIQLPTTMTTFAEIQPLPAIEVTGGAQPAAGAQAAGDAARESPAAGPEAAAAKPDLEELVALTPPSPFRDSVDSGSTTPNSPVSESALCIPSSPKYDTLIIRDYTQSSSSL

SMILES	EC50 [nM]
O=C(Cn1nc(-c2ccc(F)cc2)nc1-c1ccc(F)cc1)N1CCC(N2Cc3c(Cl)cccc3NC2=O)CC1 [Example 7.02.35.]	1420
Cc1cnc(C2=CCN(C(=O)Cn3nc(-c4ccc(F)cc4)nc3-c3ccc(F)cc3)CC2)o1 [Example 7.03.036.]	49
CC1CN(c2ncccn2)CCN1C(=O)Cn1nc(-c2ccc(F)cc2)nc1-c1ccc(F)cc1 (stereo not shown) [Example 7.03.119.]	329
CC(C)c1noc(C2CCN(C(=O)Cn3nc(-c4ccc(F)cc4)nc3-c3ccc(F)cc3)CC2)n1 [Example 7.02.03.]	1220
O=C(Cn1nc(-c2ccc(F)cc2)nc1-c1ccc(F)cc1)N1CCc2c(F)ccc(F)c2C1 [Example 7.02.27.]	1830
N#Cc1cccc(N2CCN(C(=O)Cn3nc(-c4ccc(F)cc4)nc3-c3ccc(F)cc3)CC2=O)c1 [Example 7.03.015.]	305
COc1ccc2c(c1)CCN(C(=O)Cn1nc(-c3ccc(F)c(C)c3)nc1-c1ccccc1)CC2 [Example 7.02.91.]	107
Cc1noc(C2CCN(C(=O)Cn3nc(-c4ccc(F)cc4)nc3-c3ccc(F)cc3)CC2)n1 [Example 7.02.38.]	1150
C=CCNC(=O)Nc1nc2c(s1)CN(C(=O)Cn1nc(-c3ccc(F)cc3)nc1-c1ccc(F)cc1)CC2 [Example 7.02.29.]	504
Cc1cc(-c2nc(-c3ccccc3)n(CC(=O)N3CCc4cn[nH]c4CC3)n2)ccc1F [Example 7.02.89.]	194
O=C(Cn1nc(-c2ccc(F)cc2)nc1-c1ccc(F)cc1)N1CCc2nc(C3CCCCC3)sc2CC1 [Example 7.03.032.]	868
CCc1nnc(N2CCN(C(=O)Cn3nc(-c4ccc(F)cc4)nc3-c3ccc(F)cc3)CC2)o1 [Example 7.03.044.]	96
COc1cc(C2=CCN(C(=O)Cn3nc(-c4ccc(F)c(C)c4)nc3C(C)C)CC2)ncn1 [Example 7.03.077.]	500
O=C(Cn1nc(-c2ccc(F)cc2)nc1-c1ccc(F)cc1)N1CCN(C2=NCCO2)CC1 [Example 7.03.042.]	885
Cc1nc2c(s1)CN(C(=O)Cn1nc(-c3ccc(F)c(C)c3)nc1C1CCCCC1)C2 [Example 7.03.060.]	255
O=C(Cn1nc(-c2ccc(F)cc2)nc1-c1ccc(F)cc1)N1CCc2cc(F)ccc2C1 [Example 7.02.05.]	900
Cc1nc2c(o1)CN(C(=O)Cn1nc(-c3ccc(F)c(C)c3)nc1C1CCCCC1)CC2 [Example 7.03.059.]	540
O=C(Cn1nc(-c2ccc(F)cc2)nc1-c1ccc(F)cc1)N1CCc2cc(C(F)(F)F)ccc2C1 [Example 7.02.09.]	992
COc1cccc(C2=CCN(C(=O)Cn3nc(-c4ccc(F)cc4)nc3-c3ccc(F)cc3)CC2)c1 [Example 7.03.021.]	228
Cc1ccnc(C2=CCN(C(=O)Cn3nc(-c4ccc(F)c(C)c4)nc3C(C)C)CC2)c1 [Example 7.03.078.]	803
Cc1nc2c(o1)CCN(C(=O)Cn1nc(-c3ccc(F)c(C)c3)nc1-c1ccccc1)C2 [Example 7.02.92.]	46
COc1ccc(-c2nc(-c3ccccc3)n(CC(=O)N3CCc4nc(C)sc4CC3)n2)cc1 [Example 7.03.054.]	97
CCCCc1nc(-c2ccc(F)c(C)c2)nn1CC(=O)N1CCc2nc(N)sc2CC1 [Example 7.03.102.]	293
CCCCc1nc(-c2ccc(F)c(C)c2)nn1CC(=O)N1Cc2nc(C)sc2C1 [Example 7.03.101.]	382
CCCc1nc(-c2ccc(F)c(C)c2)nn1CC(=O)N1Cc2nc(C)sc2C1 [Example 7.03.071.]	1170
O=C(Cn1nc(-c2ccc(F)cc2)nc1-c1ccc(F)cc1)N1CCN(c2cccc(F)c2)C(=O)C1 [Example 7.02.13.]	544
CCCCCc1nc(-c2ccc(F)c(C)c2)nn1CC(=O)N1CCN(c2cccc(OC)c2)C(=O)C1 [Example 7.03.109.]	422
COc1cc(C2CCN(C(=O)Cn3nc(-c4ccc(F)cc4)nc3-c3ccc(F)cc3)CC2)ncn1 [Example 7.03.026.]	987

SMILES	EC50 [nM]
COc1nc2c(s1)CCN(C(=O)Cn1nc(-c3ccc(F)cc3)nc1-c1ccc(F)cc1)CC2 [Example 7.03.039.]	50
Cc1cc(-c2nc(C3CCC(C)CC3)n(CC(=O)N3CCc4nc(N)sc4CC3)n2)ccc1F (stereo not shown) [Example 7.03.092.]	1160
CNC(=O)Nc1nc2c(s1)CN(C(=O)Cn1nc(-c3ccc(F)cc3)nc1-c1ccc(F)cc1)CC2 [Example 7.02.17.]	1060
COC(=O)c1ccc2c(c1)CCN(C(=O)Cn1nc(-c3ccc(F)cc3)nc1-c1ccc(F)cc1)CC2 [Example 7.02.11.]	376
Cc1nc2c(s1)CCN(C(=O)Cn1nc(-c3ccc(OC(F)F)cc3)nc1-c1ccccc1)CC2 [Example 7.03.127]	40
O=C(Cn1nc(-c2ccc(F)cc2)nc1-c1ccc(F)cc1)N1CCC(c2noc3ccccc23)CC1 [Example 7.02.01., 1-(4-Benzo[d]isoxazol-3-yl-piperidin-1-yl)-2-(3,5-bis-(4-fluoro-phenyl)-(1,2,4)triazol-1-yl)-ethanone]	178
Cc1nc2c(s1)CCN(C(=O)Cn1nc(-c3ccc(F)c(C)c3)nc1C1CCCC(C)C1)CC2 (stereo not shown) [Example 7.03.096.]	355
O=C(Cn1nc(-c2ccc(F)cc2)nc1-c1ccc(F)cc1)N1CCN(c2ncnc3ccccc23)CC1 [07.03.141^]	1120
Cc1nc2c(o1)CCN(C(=O)Cn1nc(-c3ccc(F)cc3)nc1-c1ccc(F)cc1)C2 [Example 7.02.65.]	407
O=C(Cn1nc(-c2ccc(F)cc2)nc1-c1ccc(F)cc1)N1CCC(c2noc3ccc(F)cc23)CC1 [Example 7.02.28.]	644
CNc1nc2c(s1)CCN(C(=O)Cn1nc(-c3ccc(F)cc3)nc1-c1ccc(F)cc1)CC2 [Example 7.04.02.]	132
Cc1nc2c(s1)CC(C)N(C(=O)Cn1nc(-c3ccc(F)cc3)nc1-c1ccc(F)cc1)CC2 (stereo not shown) [Example 7.03.121.]	259
O=C(Cn1nc(-c2ccc(F)cc2)nc1-c1ccc(F)cc1)N1CCC(c2nnc(-c3ccc(F)cc3)o2)CC1 [Example 7.02.22.]	746
CCCc1nc(-c2ccc(OC(F)F)cc2)nn1CC(=O)N1CCN(c2noc(C)n2)CC1 [Example 7.03.130]	481
O=C(Cn1nc(-c2ccc(F)cc2)nc1-c1ccc(F)cc1)N1CCN(c2ccccc2)C(=O)C1 [Example 7.03.010.]	734
Cc1cc(-c2nc(C3CCCCC3)n(CC(=O)N3CCc4nc(N)sc4CC3)n2)ccc1F [Example 7.03.061.]	369
Cc1cc(-c2nc(-c3ccccc3)n(CC(=O)N3CCc4nc(N)sc4CC3)n2)ccc1F [Example 7.03.065.]	95
Cc1nc2c(s1)CCN(C(=O)Cn1nc(-c3ccc(F)c(C)c3)nc1C1CCCCC1)CC2 [Example 7.03.062.]	155
CCNC(=O)Nc1nc2c(s1)CN(C(=O)Cn1nc(-c3ccc(F)cc3)nc1-c1ccc(F)cc1)CC2 [Example 7.02.15.]	646
Cc1nc2c(s1)CN(C(=O)Cn1nc(-c3ccc(F)c(C)c3)nc1C1CCCC1)C2 [Example 7.03.105.]	870
O=C(Cn1nc(-c2ccc(F)cc2)nc1-c1ccc(F)cc1)N1CCN(c2ncnc3c2SCC3)CC1 [Example 7.02.76.]	242
COC(=O)c1ccc2c(c1)CCN(C(=O)Cn1nc(-c3ccc(F)cc3)nc1-c1ccc(F)cc1)C2 [Example 7.02.33.]	309
O=C(Cn1nc(-c2ccc(F)cc2)nc1-c1ccc(F)cc1)N1CCc2nc(N3CCCCC3)sc2CC1 [Example 7.04.04.]	561
COc1ccc2c(n1)CCN(C(=O)Cn1nc(-c3ccc(F)c(C)c3)nc1-c1ccccc1)CC2 [Example 7.02.83.]	105
COc1cccc(N2CCN(C(=O)Cn3nc(-c4ccc(F)c(C)c4)nc3C3CCCC3)CC2=O)c1 [Example 7.03.104.]	679
O=C(Cn1nc(-c2ccc(F)cc2)nc1-c1ccc(F)cc1)N1CCN(C2=NCCS2)CC1 [Example 7.03.046.]	356
O=C(Cn1nc(-c2ccc(F)cc2)nc1-c1ccc(F)cc1)N1CCc2ncsc2CC1 [Example 7.03.011.]	453
